Where two headings read alike, the source gives them in different places.
[1] = heating temp. 60 °C, obs. temp. 25 °C
[2] = heating temp. 40 °C, obs. temp. 40 °C
[3] = heating temp. 60 °C, obs. temp. 40 °C
[4] = section 'Solubility by volumetric flask method', heating temp. 40 °C, obs. temp. 40 °C

SMILES	Approximate Solubility (mg/mL) in Excipient: Cottonseed oil [1]	Approximate Solubility (mg/mL) in Excipient: Sesame oil [1]	Equilibrium solubility (mg/mL) Water [2]	other results
C=C1CC[C@@]2(O)C3Cc4ccc(OC(=O)OCCCCCCCCCCCCCCCCCC)c5c4[C@@]2(CCN3CC2CC2)[C@H]1O5 [Compound 33, (4aS,7aS,12bS)-3-(cyclopropylmethyl)-4a-hydroxy-7-methylene-2,3,4,4a,5,6,7,7a-octahydro-1H-4,12-methanobenzofuro[3,2-e]isoquinolin-9-yl octadecyl carbonate]	<50 mg/mL	<51 mg/mL	<0.001 mg/mL	
C=C1CC[C@@]2(O)C3Cc4ccc(OC(=O)CCCCCCCCCCCCCCCCC)c5c4[C@@]2(CCN3CC2CC2)[C@H]1O5 [Compound 12, (4aS,7aS,12bS)-3-(cyclopropylmethyl)-4a-hydroxy-7-methylene-2,3,4,4a,5,6,7,7a-octahydro-1H-4,12-methanobenzofuro[3,2-e]isoquinolin-9-yl stearate]	<51 mg/mL	<50 mg/mL		Approximate Solubility (mg/mL) in Excipient: Cottonseed oil [2]: 100 to 120 mg/mL; Approximate Solubility (mg/mL) in Excipient: Cottonseed oil [3]: >398.5 mg/mL; Approximate Solubility (mg/mL) in Excipient: Ethanol [2]: 65 to 75 mg/mL; Approximate Solubility (mg/mL) in Excipient: Sesame oil [2]: 70 to 95 mg/mL; Approximate Solubility (mg/mL) in Excipient: Sesame oil [3]: >411.1 mg/mL
CCCCCCCCCCCCCCCCOC(=O)OCOc1ccc2c3c1O[C@H]1C(=O)CC[C@@]4(O)C(C2)N(CC2CC2)CC[C@]314 [Compound 47, (((4aS,7aR,12bS)-3-(cyclopropylmethyl)-4a-hydroxy-7-oxo-2,3,4,4a,5,6,7,7a-octahydro-1H-4,12-methanobenzofuro[3,2-e]isoquinolin-9-yl)oxy)methyl hexadecyl carbonate]	>405.5 mg/mL		<0.001 mg/mL	
CCCCCCCC/C=C\CCCCCCCCCCCC(=O)Oc1ccc2c3c1O[C@H]1C(=O)CC[C@@]4(O)C(C2)N(CC2CC2)CC[C@]314 [Compound 22, (4aS,7aR,12bS)-3-(cyclopropylmethyl)-4a-hydroxy-7-oxo-2,3,4,4a,5,6,7,7a-octahydro-1H-4,12-methanobenzofuro[3,2-e]isoquinolin-9-yl (Z)-docos-13-enoate]	67 to 80 mg/mL	67 to 80 mg/mL		Approximate Solubility (mg/mL) in Excipient: Cottonseed oil [3]: >405.9 mg/mL; Approximate Solubility (mg/mL) in Excipient: Ethanol [3]: >397.7 mg/mL; Approximate Solubility (mg/mL) in Excipient: Sesame oil [3]: >401.9 mg/mL
C=C1CC[C@@]2(O)C3Cc4ccc(OC(=O)CCCCCCC/C=C\C/C=C\C/C=C\CC)c5c4[C@@]2(CCN3CC2CC2)[C@H]1O5 [Compound 20, (4aS,7aS,12bS)-3-(cyclopropylmethyl)-4a-hydroxy-7-methylene-2,3,4,4a,5,6,7,7a-octahydro-1H-4,12-methanobenzofuro[3,2-e]isoquinolin-9-yl (9Z,12Z,15Z)-octadeca-9,12,15-trienoate]	68 to 82 mg/mL	80 to 100 mg/mL	<0.0002 mg/mL	Approximate Solubility (mg/mL) in Excipient: Cottonseed oil [2]: >414 mg/mL; Approximate Solubility (mg/mL) in Excipient: Ethanol [2]: 157 to 197 mg/mL; Approximate Solubility (mg/mL) in Excipient: Sesame oil [2]: >406 mg/mL
C=C1CC[C@@]2(O)C3Cc4ccc(OCOC(=O)CCCCCCCCCCCCCCC)c5c4[C@@]2(CCN3CC2CC2)[C@H]1O5 [Compound 46, (((4aS,7aS,12bS)-3-(cyclopropylmethyl)-4a-hydroxy-7-methylene-2,3,4,4a,5,6,7,7a-octahydro-1H-4,12-methanobenzofuro[3,2-e]isoquinolin-9-yl)oxy)methyl hexadecanoate]	>395.5 mg/mL	202 to 269 mg/mL	<0.001 mg/mL	
CCCCCCCCCCCCOC(=O)OCOc1ccc2c3c1O[C@H]1C(=O)CC[C@@]4(O)C(C2)N(CC2CC2)CC[C@]314 [Compound 29, (((4aS,7aR,12bS)-3-(cyclopropylmethyl)-4a-hydroxy-7-oxo-2,3,4,4a,5,6,7,7a-octahydro-1H-4,12-methanobenzofuro[3,2-e]isoquinolin-9-yl)oxy)methyl dodecyl carbonate]	>410.2 mg/mL	>416.5 mg/mL	<0.001 mg/mL	
CCCCCCCCCCCOC(=O)OCOc1ccc2c3c1O[C@H]1C(=O)CC[C@@]4(O)C(C2)N(CC2CC2)CC[C@]314 [Compound 4, (((4aS,7aR,12bS)-3-(cyclopropylmethyl)-4a-hydroxy-7-oxo-2,3,4,4a,5,6,7,7a-octahydro-1H-4,12-methanobenzofuro[3,2-e]isoquinolin-9-yl)oxy)methyl undecyl carbonate]				Solubility by volumetric flask method: Cottonseed oil [1]: >395.3 mg/mL; Solubility by volumetric flask method: Sesame oil [1]: >400.4 mg/mL; Equilibrium solubility (mg/mL) Water [4]: <0.001 mg/mL
CCCCCCCC/C=C/CCCCCCCC(=O)OCOc1ccc2c3c1O[C@H]1C(=O)CC[C@@]4(O)C(C2)N(CC2CC2)CC[C@]314 [Compound 26, (((4aS,7aR,12bS)-3-(cyclopropylmethyl)-4a-hydroxy-7-oxo-2,3,4,4a,5,6,7,7a-octahydro-1H-4,12-methanobenzofuro[3,2-e]isoquinolin-9-yl)oxy)methyl (E)-octadec-9-enoate]	204.3-239^ mg/mL	<354 mg/mL	<0.001 mg/mL	
C=C1CC[C@@]2(O)C3Cc4ccc(OCOC(=O)CCCCCCCCCCC)c5c4[C@@]2(CCN3CC2CC2)[C@H]1O5 [Compound 44, (((4aS,7aS,12bS)-3-(cyclopropylmethyl)-4a-hydroxy-7-methylene-2,3,4,4a,5,6,7,7a-octahydro-1H-4,12-methanobenzofuro[3,2-e]isoquinolin-9-yl)oxy)methyl dodecanoate]	>407 mg/mL	208 to 231 mg/mL	<0.001 mg/mL	
CCCCCCCC/C=C\CCCCCCCC(=O)Oc1ccc2c3c1O[C@H]1C(=O)CC[C@@]4(O)C(C2)N(CC2CC2)CC[C@]314 [Compound 41, (4aS,7aR,12bS)-3-(cyclopropylmethyl)-4a-hydroxy-7-oxo-2,3,4,4a,5,6,7,7a-octahydro-1H-4,12-methanobenzofuro[3,2-e]isoquinolin-9-yl oleate]	<50 mg/mL	<50 mg/mL		Approximate Solubility (mg/mL) in Excipient: Cottonseed oil [2]: >407 mg/mL; Approximate Solubility (mg/mL) in Excipient: Ethanol [2]: >201 mg/mL
C=C1CC[C@@]2(O)C3Cc4ccc(OC(=O)OCCCCCCCCCCCCCCCCCCCC)c5c4[C@@]2(CCN3CC2CC2)[C@H]1O5 [Compound 28, (4aS,7aS,12bS)-3-(cyclopropylmethyl)-4a-hydroxy-7-methylene-2,3,4,4a,5,6,7,7a-octahydro-1H-4,12-methanobenzofuro[3,2-e]isoquinolin-9-yl icosyl carbonate]	<50.2 mg/mL	<50.6 mg/mL	<0.001 mg/mL	
C=C1CC[C@@]2(O)C3Cc4ccc(OC(=O)OCCCCCCCCCCC)c5c4[C@@]2(CCN3CC2CC2)[C@H]1O5 [Compound 3, (4aS,7aS,12bS)-3-(cyclopropylmethyl)-4a-hydroxy-7-methylene-2,3,4,4a,5,6,7,7a-octahydro-1H-4,12-methanobenzofuro[3,2-e]isoquinolin-9-yl undecyl carbonate]				Solubility by volumetric flask method: Cottonseed oil [1]: >399.12 mg/mL; Solubility by volumetric flask method: Sesame oil [1]: >400.7 mg/mL; Equilibrium solubility (mg/mL) Water [4]: <0.001 mg/mL
CCCCCCCCCCCCCCOC(=O)OCOc1ccc2c3c1O[C@H]1C(=O)CC[C@@]4(O)C(C2)N(CC2CC2)CC[C@]314 [Compound 27, (((4aS,7aR,12bS)-3-(cyclopropylmethyl)-4a-hydroxy-7-oxo-2,3,4,4a,5,6,7,7a-octahydro-1H-4,12-methanobenzofuro[3,2-e]isoquinolin-9-yl)oxy)methyl tetradecyl carbonate]	>394.7 mg/mL	>399.2 mg/mL	<0.001 mg/mL	
CCCCCCCCCCCC(=O)OCOc1ccc2c3c1O[C@H]1C(=O)CC[C@@]4(O)C(C2)N(CC2CC2)CC[C@]314 [Compound 48, (((4aS,7aR,12bS)-3-(cyclopropylmethyl)-4a-hydroxy-7-oxo-2,3,4,4a,5,6,7,7a-octahydro-1H-4,12-methanobenzofuro[3,2-e]isoquinolin-9-yl)oxy)methyl dodecanoate]	>410.5 mg/mL			
C=C1CC[C@@]2(O)C3Cc4ccc(OC(=O)CCCCCCC/C=C\C/C=C\CCCCC)c5c4[C@@]2(CCN3CC2CC2)[C@H]1O5 [Compound 37, (4aS,7aS,12bS)-3-(cyclopropylmethyl)-4a-hydroxy-7-methylene-2,3,4,4a,5,6,7,7a-octahydro-1H-4,12-methanobenzofuro[3,2-e]isoquinolin-9-yl (9Z,12Z)-octadeca-9,12-dienoate]	68.5-82^ mg/mL	80 to 102 mg/mL		Approximate Solubility (mg/mL) in Excipient: Castor oil (Castor oil, heating temp. 40 °C, obs. temp. 40 °C): >226 mg/mL; Approximate Solubility (mg/mL) in Excipient: Ethanol [2]: 75 to 90 mg/mL; Approximate Solubility (mg/mL) in Excipient: Sesame oil [2]: >408.4 mg/mL

Reference: US10533015B1, “Opioid receptor antagonist prodrugs” (Nirsum Laboratories, Inc., priority 2019, dated 2020)
